Measured values taken from ChEMBL document CHEMBL1201862, “PubChem BioAssay data set” (2004).
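Where inhibition never reached the appropriate level, the endpoint shown equals the highest concentration tested. Otherwise, values were interpolated linearly from a five-concentration, 48-hour dose response in 96-well plates. GI50: concentration for 50% inhibition of growth.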 Activity calls are given as the source filed them. Cut-off read from the data, not from the text of the source: active = GI50 up to about 1.1 µM and inactive = higher.

Tests used:
Experiment in all cases: NCI tumour cell line growth inhibition, 48 h
[1] = test system: HCC 2998
[2] = test system: IGROV-1
[3] = test system: PC-3
[4] = test system: 786-0
[5] = test system: NCI-H226
[6] = test system: SF-539
[7] = test system: HL-60
[8] = test system: ACHN
[9] = test system: Malme-3M
[10] = test system: OVCAR-5
[11] = test system: MDA-MB-435
[12] = test system: Hs-578T
[13] = test system: NCI-H23
[14] = test system: RPMI-8226
[15] = test system: A498
[16] = test system: MDA-MB-231
[17] = test system: U-251
[18] = test system: RXF 393
[19] = test system: KM12
[20] = test system: SNB-19

Row | Structure (SMILES) | GI50 [1] | GI50 [2] | GI50 [3] | GI50 [4] | GI50 [5] | GI50 [6] | GI50 [7] | GI50 [8] | GI50 [9] | GI50 [10] | GI50 [11] | GI50 [12] | GI50 [13] | GI50 [14] | GI50 [15] | GI50 [16] | GI50 [17] | GI50 [18] | GI50 [19] | GI50 [20]
1 | CCSc1nc(=S)n(-c2ccccc2)c(C)c1C(C)=O | > 100 µM (inactive) | > 100 µM (inactive) | > 100 µM (inactive) | > 100 µM (inactive) | > 100 µM (inactive) | > 100 µM (inactive) | > 100 µM (inactive) | > 100 µM (inactive) | > 100 µM (inactive) | > 100 µM (inactive) | > 100 µM (inactive) | > 100 µM (inactive) | > 100 µM (inactive) | > 100 µM (inactive) | > 100 µM (inactive) | > 100 µM (inactive) | > 100 µM (inactive) | > 100 µM (inactive) | > 100 µM (inactive) | > 94.6 µM (inactive)
2 | Nc1nc(-c2cc(-c3cccc4ccccc34)nc(N)n2)cc(-c2cccc3ccccc23)n1 | > 100 µM (inactive) | > 100 µM (inactive) | > 100 µM (inactive) | > 100 µM (inactive) | > 100 µM (inactive) | > 100 µM (inactive) | > 100 µM (inactive) | > 100 µM (inactive) | > 100 µM (inactive) | > 100 µM (inactive) | > 100 µM (inactive) | > 100 µM (inactive) | > 100 µM (inactive) | > 100 µM (inactive) | > 100 µM (inactive) | > 100 µM (inactive) | > 100 µM (inactive) | > 100 µM (inactive) | > 100 µM (inactive) | > 100 µM (inactive)
3 | O=C(O)CN1CCN2CCOCCN(CC1)CCN(CC(=O)O)CC2 | > 100 µM (inactive) | > 100 µM (inactive) | > 100 µM (inactive) | > 100 µM (inactive) | > 100 µM (inactive) | > 100 µM (inactive) | > 53.3 µM (inactive) | > 100 µM (inactive) | > 100 µM (inactive) | > 100 µM (inactive) | > 100 µM (inactive) | > 100 µM (inactive) | > 100 µM (inactive) | > 100 µM (inactive) | > 100 µM (inactive) | > 100 µM (inactive) | > 100 µM (inactive) | > 100 µM (inactive) | > 100 µM (inactive) | > 100 µM (inactive)
4 | CC1OC(OC2C(Oc3cc(O)c4c(c3)O[C@H](c3ccc(O)cc3)CC4=O)OC(CO)C(O)C2O)C(O)C(O)C1O (stereo partly specified) | > 100 µM (inactive) | > 100 µM (inactive) | > 100 µM (inactive) | > 100 µM (inactive) | > 100 µM (inactive) | > 100 µM (inactive) | > 100 µM (inactive) | > 100 µM (inactive) | > 100 µM (inactive) | > 100 µM (inactive) | > 100 µM (inactive) | > 100 µM (inactive) | > 100 µM (inactive) | > 100 µM (inactive) | > 100 µM (inactive) | > 100 µM (inactive) | > 100 µM (inactive) | > 100 µM (inactive) | > 100 µM (inactive) | –
5 | O=C(O)CCCc1ccc2c(c1)CC1(C2)Cc2ccc(CCCC(=O)O)cc2C1 | > 100 µM (inactive) | > 100 µM (inactive) | > 100 µM (inactive) | > 100 µM (inactive) | > 100 µM (inactive) | > 100 µM (inactive) | > 100 µM (inactive) | > 100 µM (inactive) | > 100 µM (inactive) | > 100 µM (inactive) | > 100 µM (inactive) | > 100 µM (inactive) | > 100 µM (inactive) | > 100 µM (inactive) | > 100 µM (inactive) | > 100 µM (inactive) | > 100 µM (inactive) | > 100 µM (inactive) | > 100 µM (inactive) | –
6 | Nc1nc(N)c(N=O)c(Nc2ccc(O)cc2)n1 | 72.3 µM (inactive) | 7.82 µM (inactive) | 32.2 µM (inactive) | > 55.7 µM (inactive) | 23.7 µM (inactive) | 6.56 µM (inactive) | 9.53 µM (inactive) | 46.2 µM (inactive) | 33.4 µM (inactive) | – | 38.7 µM (inactive) | 13.7 µM (inactive) | 49.9 µM (inactive) | > 44.4 µM (inactive) | > 55.8 µM (inactive) | > 58.3 µM (inactive) | > 52 µM (inactive) | 93.3 µM (inactive) | > 57.4 µM (inactive) | > 52 µM (inactive)
7 | O=[N+]([O-])c1cc(Cl)cc2cc(Br)cnc12 | > 31.6 µM (inactive) | – | > 31.6 µM (inactive) | 21.4 µM (inactive) | 29.6 µM (inactive) | > 31.6 µM (inactive) | > 31.6 µM (inactive) | > 31.6 µM (inactive) | > 31.6 µM (inactive) | > 31.6 µM (inactive) | > 31.6 µM (inactive) | 17.6 µM (inactive) | 26.9 µM (inactive) | > 31.6 µM (inactive) | 23.6 µM (inactive) | 21.1 µM (inactive) | 20.1 µM (inactive) | > 31.6 µM (inactive) | > 10 µM (inactive) | 27.8 µM (inactive)
8 | CCOC(=O)C1=NOC2(C=C(Br)C(=O)C(Br)=C2)C1 | 1.79 µM (inactive) | 7.36 µM (inactive) | 2.29 µM (inactive) | 0.659 µM (active) | 25.8 µM (inactive) | 4.43 µM (inactive) | 0.28 µM (active) | 0.923 µM (active) | 0.625 µM (active) | 5.47 µM (inactive) | 1.76 µM (inactive) | 22.1 µM (inactive) | 3.05 µM (inactive) | 0.217 µM (active) | 20.1 µM (inactive) | 6.78 µM (inactive) | 9.93 µM (inactive) | 1.59 µM (inactive) | 13.4 µM (inactive) | 19 µM (inactive)
9 | Oc1ccccc1C1=NOC(c2ccc(C(F)(F)F)cc2)C1 (stereo unspecified) | > 50 µM (inactive) | 0.527 µM (active) | > 50 µM (inactive) | > 50 µM (inactive) | > 50 µM (inactive) | > 50 µM (inactive) | > 50 µM (inactive) | > 50 µM (inactive) | > 50 µM (inactive) | > 50 µM (inactive) | > 50 µM (inactive) | > 50 µM (inactive) | > 50 µM (inactive) | > 50 µM (inactive) | > 50 µM (inactive) | > 41.6 µM (inactive) | > 50 µM (inactive) | > 50 µM (inactive) | > 50 µM (inactive) | > 50 µM (inactive)
10 | CC(C)=NOC(=O)OC[C@H]1O[C@@H](n2cnc3c(N)ncnc32)C(O)C1O (stereo partly specified) | > 100 µM (inactive) | > 100 µM (inactive) | > 100 µM (inactive) | 70 µM (inactive) | > 100 µM (inactive) | > 100 µM (inactive) | 45.7 µM (inactive) | > 100 µM (inactive) | > 100 µM (inactive) | > 100 µM (inactive) | 82.6 µM (inactive) | > 100 µM (inactive) | > 100 µM (inactive) | 52 µM (inactive) | > 100 µM (inactive) | > 100 µM (inactive) | > 100 µM (inactive) | > 100 µM (inactive) | > 100 µM (inactive) | > 100 µM (inactive)
